Reference: patent US9193699B2, “Apoptosis inducing compounds” (INSTITUT NATIONAL DE LA SANTE ET DE LA RECHERCHE MEDICALE …, priority 2011, dated 2015)

Columns and labels:
[1] = test system: caspase-3 and caspase-7 in SUM149 cells; test: Caspase 3/7 activation (Caspase-Glo 3/7) in SUM149 tumor cells; format: cell-based; details: Homo sapiens, R=RLU at 20 μM/RLU at 0 μM, 24 h, read-out: Caspase 3/7 activation R (RLU fold increase from untreated cells)
Protocol: (§1) Human breast tumor SUM149 cells were plated in a 96 well plate at 10000 cells/100 μL at 37° C. in 5% CO2. Serial dilutions of drugs (compounds 1, 3 or 4) ranging from 20 μM to 300 nM were added at day 0. Active caspase-3 and caspase-7 were measured in triplicate after 24 h treatment by incubating 50 μL of the Caspase-Glo 3/7 reagent for 60 min at 25° C. This reagent containing the proluminescent tetrapeptide sequence DEVD in a cell lysis buffer (Promega) (FIG. 6).
(§2) Caspase 3/7 activation in SUM149 and L226 tumor cells was measured.
(§3) The calculated values R correspond to Relative Luminescence Units (RLU) fold increase from untreated cells (R=RLU at 20 μM/RLU at 0 μM).

[2] = test system: caspase-3 and caspase-7 in HME-1 cells; test: Caspase 3/7 activation (Caspase-Glo 3/7) in HME-1 normal cells; format: cell-based; details: Homo sapiens, HME1, R=RLU at 20 μM/RLU at 0 μM, 24 h, read-out: Caspase 3/7 activation R (RLU fold increase from untreated cells)
Protocol: as §1, with “normal mammary epithelial HME-1” for “breast tumor SUM149”, “8).” for “6).”
as §3
(§4) Caspase 3/7 activation in MCF-10A and HME-1 normal cells was also measured.

[3] = test system: Human breast tumor SUM149 cells; test: Annexin V/7-AAD apoptosis with or without Z-VAD-FMK; format: cell-based; details: 2.5 to 20 μM, 48 h, with Z-VAD-FMK pan-caspases inhibitor
Protocol: Human breast tumor SUM149 cells were plated in dishes at a concentration of 10^6 cells/[…] Cells were treated with compound 3 or compound 4 (2.5 to 20 μM) for 48 h, with or without Z-VAD-FMK, a pan-caspases inhibitor. Cells were double stained with annexinV-FITC and 7-AAD to measure cell apoptosis.

[4] = test system: Human normal mammary epithelial HME-1 cells; test: Effect on growth of normal cells (alamar blue), HME-1; format: cell-based; details: HME1, calculated on the basis of cell growth inhibition
Protocol: (§5) All biological experiments (Examples 2 to 9) have been performed with recommended cell line specific culture medium. For SUM149 and L226, culture medium is supplemented with 10% Fetal Calf Serum. For HME-1 and MCF-10A, culture medium is supplemented with 5% Horse Serum.
(§6) Human normal mammary epithelial HME-1 cells were plated in a 96 well plate at 3000 cells/100 μL at 37° C. in 5% CO2. Serial dilutions of drugs (compounds 1, 3 or 4) ranging from 20 μM to 300 nM were added at day 0 and day 3. The number of viable cells was determined in triplicate at day 5 by incubating 10 μL of the alamar blue staining solution for 2 hours at 37° C. (FIG. 4).
(§7) IC50 values of compounds 1-14 for the inhibition of MCF-10A and HME-1 normal cells growth were also measured (according to the experimental procedure of Examples 4 and 5): […]

[5] = test system: Human breast tumor SUM149 cells; test: Inhibition of tumor cell growth (alamar blue), SUM149; format: cell-based; details: 120 h, calculated on the basis of cell growth inhibition, day 5, alamar blue, read-out: IC50 for the inhibition of SUM149 tumor cells growth
Protocol: as §5
Human breast tumor SUM149 cells (Inflammatory Breast Cancer (IBC) of basal subtype) were plated in a 96 well plate at 3000 cells/100 μL at 37° C. in 5% CO2. Compounds 1, 3, 4, 5, 6, 7, 8, 9, 10, 11, 12, 13, 14 at 10 μM were added at day 0 and day 3. The number of viable cells was determined in triplicate at day 5 by incubating 10 μL of the alamar blue staining solution for 2 hours at 37° C. (FIG. 1).
as §6, with “breast tumor SUM149” for “normal mammary epithelial HME-1”, “2).” for “4).”
IC50 values of compounds 1-14 for the inhibition of SUM149 and L226 tumor cells growth were measured (according to the experimental procedure of Examples 2 and 3):
Human breast tumor SUM149 cells were plated in a 96 well plate at 3000 cells/100 μL at 37° C. in 5% CO2 in recommended medium containing 10% FCS or in synthetic medium without FCS. Serial dilutions of drug (compound 4) ranging from 10 μM to 0.16 μM were added at day 0 and day 3. The number of viable cells was determined in triplicate at day 5 by incubating 10 μL of the alamar blue staining solution for 2 hours at 37° C. (FIG. 11). The […] in recommended medium containing 10% FCS was measured at 2 μM, while it was measured at 0.6 μM without FCS.

[6] = test system: Human breast tumor L226 cells; test: Inhibition of tumor cell growth (alamar blue), L226; format: cell-based; details: 120 h, calculated on the basis of cell growth inhibition, day 5, alamar blue
Protocol: as §5
Human breast tumor L226 cells (Inflammatory Breast Cancer (IBC) of ERB-B2 subtype) were plated in a 96 well plate at 3000 cells/100 μL at 37° C. in 5% CO2. Serial dilutions of drugs (compounds 1, 3 or 4) ranging from 20 μM to 300 nM were added at day 0 and day 3. The number of viable cells was determined in triplicate at day 5 by incubating 10 μL of the alamar blue staining solution for 2 hours at 37° C. (FIG. 3).
IC50 values of compounds 1-14 for the inhibition of SUM149 and L226 tumor cells growth were measured (according to the experimental procedure of Examples 2 and 3): […]

[7] = test system: Human normal mammary epithelial MCF-10A cells; test: Effect on growth of normal cells (alamar blue), MCF-10A; format: cell-based; details: calculated on the basis of cell growth inhibition
Protocol: as §5
as §6, with “MCF-10A” for “HME-1”, “5).” for “4).”
as §7

[8] = test system: caspase-3 and caspase-7 in MCF-10A cells; test: Caspase 3/7 activation (Caspase-Glo 3/7) in MCF-10A normal cells; format: cell-based; details: Homo sapiens, R=RLU at 20 μM/RLU at 0 μM, 24 h, read-out: Caspase 3/7 activation R (RLU fold increase from untreated cells)
Protocol: as §1, with “normal mammary epithelial MCF-10A” for “breast tumor SUM149”, “9).” for “6).”
as §3, §4

[9] = test system: caspase-3 and caspase-7 in L226 cells; test: Caspase 3/7 activation (Caspase-Glo 3/7) in L226 tumor cells; format: cell-based; details: Homo sapiens, R=RLU at 20 μM/RLU at 0 μM, 24 h, read-out: Caspase 3/7 activation R (RLU fold increase from untreated cells)
Protocol: as §1, with “L226” for “SUM149”, “7).” for “6).”
as §2, §3

[10] = test system: tumors derived from MMTC-ErbB2/neu mice; test: TUNEL assay of tumor apoptosis in MMTV-ErB2/Neu mice; format: in vivo; details: 100 mg/kg for 30 days
Protocol: DNA fragmentation in apoptotic cells was analyzed by the TUNEL assay (ApopTag detection kit, Millipore) as recommended by the manufacturer.
Briefly, 4 μm sections of paraffin-embedded fixed tissue from tumors derived from MMTC-ErbB2/neu mice treated with vehicle or with Compound 12, 4 or 8 (100 mg/kg) for 30 days, were deparaffined with successive histolemon and ethanol washes, then treated with 20 μg/mL proteinase K for 15 min at room temperature. Endogenous peroxidise was quenched with 3% hydrogen peroxide. […] Coloration was performed using the diaminobenzidine mixed substrate (Dako). Counterstaining was done with a solution of 1% methyl green for 5 min at room temperature. After distilled water and N-butanol washes, specimens were mounted in Pertex medium (CellPath). Observations were made using the Leica DMD108 digital microimaging device (Leica Microsystems GmbH).

Compound	fold induction at 20 µM [1]	fold induction at 20 µM [2]	effect of Z-VAD treatment on compound induced apoptosis (Annexin V positive cells) [3]	IC50 [4] [µM]	IC50 [5] [µM]	IC50 [6] [µM]	IC50 [7] [µM]	fold induction at 20 µM [8]	fold induction at 20 µM [9]	percentage of cells having TdT positive nuclei in tumors [10]
CC(C)c1ccc(S(=O)(=O)N2CCSC(C)(C)[C@@H]2C(=O)NO)cc1 [Compound 3, (3S)—N-hydroxy-4-[(4-isopropylphenyl)sulfonyl]-2,2-dimethyl-3-thiomorpholine carboxamide]	6.3	1	fully impaired	> 20	2.5	2.5	> 20	1	2.1	
CCc1ccc(S(=O)(=O)N2CCSC(C)(C)[C@@H]2C(=O)NO)cc1 [Compound 8, (3S)—N-hydroxy-4-[(4-ethylphenyl)sulfonyl]-2,2-dimethyl-3-thiomorpholine carboxamide]	5.7			> 20	7.5	5	> 20		2.3	rare
